Structures can show the parent of a compound that is named as a salt.
biological target: T1, human 5-HT1A receptor (Homo sapiens, UniProt P08908); test: Displacement of [3H]8-OH-DPAT from the 5-HT1A receptor in transfected CHO cells; conditions: [3H]-8-OH-DPAT 1.5 nM; CHO cells with human 5-HT1A receptor; nonspecific binding with 10 μM 5-HT; room temperature; read-out: 5-HT1A Affinity (IC50)
T1 construct: expressed in transfected cells; host or cells: CHO cells (stably transfected)
T1 sequence (P08908 1-422): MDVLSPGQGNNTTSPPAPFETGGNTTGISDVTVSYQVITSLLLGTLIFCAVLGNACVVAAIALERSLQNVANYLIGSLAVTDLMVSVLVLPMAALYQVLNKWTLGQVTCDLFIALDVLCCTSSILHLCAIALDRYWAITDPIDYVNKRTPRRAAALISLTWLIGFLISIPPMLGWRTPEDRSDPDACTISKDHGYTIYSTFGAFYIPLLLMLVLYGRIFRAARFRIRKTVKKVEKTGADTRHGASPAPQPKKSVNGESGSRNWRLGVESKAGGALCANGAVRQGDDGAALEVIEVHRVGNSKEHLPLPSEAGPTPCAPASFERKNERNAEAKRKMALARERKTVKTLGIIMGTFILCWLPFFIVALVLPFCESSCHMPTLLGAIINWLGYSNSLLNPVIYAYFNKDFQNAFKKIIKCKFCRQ
Text: Affinity for the serotonin 5-HT1A receptor was established by assaying the test compound's ability to displace [3H]8-OHDPAT (dipropylaminotetralin) from its binding site on the receptor complex in CHO cells stably transfected with the human 5-HT1A receptor following a variation of a procedure of J. Zgombick et al., Naunyn-Schmiedeberg's Arch. Pharmacol., 354, 226-236 (1996), as described by J. Dunlop, Y. Zhang, D. L. Smith and L. E. Schechter, Journal of Pharmacological and Toxicological Methods 40, 47-55 (1998). The variation includes: the use of cells containing clonal human 5-HT1A receptor in place of 5-HT1D receptor; the use of [3H]-8-OH-DPAT (1.5 nM) as radioligand in place of [3H]-LSD; nonspecific binding determined with 10 μM 5-HT; and the test procedure was run at room temperature rather than 37° C.

In order of falling IC50:
1. COc1ccccc1N1CCN(C[C@@H](C)N(C(=O)c2ccccc2)C(=O)c2ccccc2)CC1 [Example 16, (R)-N-Benzoyl-N-{1-methyl-2-[4-(2-methoxyphenyl)-piperazin-1-yl]-ethyl}-benzamide semifumarate-hemihydrate]  79.6 nM
2. COc1ccccc1N1CCN(C[C@@H](Cc2ccccc2)N(C(=O)C2CCCCC2)C(=O)C2CCCCC2)CC1 [Example 10, (R)-Cyclohexanecarboxylic acid cyclohexanecarbonyl-{1-benzyl)-2-[4-(2-methoxy-phenyl)-piperazin-1yl]-ethyl}-amide fumarate]  61 nM
3. COc1ccccc1N1CCN(CCN(C(=O)c2ccccc2)C(=O)c2ccccc2)CC1 [Example 15, N-Benzoyl-N-{-2-[4-(2-methoxyphenyl)-piperazin-1-yl]-ethyl}-benzamide hydrochloride hemihydrate]  23.4 nM
4. O=C(c1ccccc1)N(CCN1CCN(c2cccc3c2OCCO3)CC1)C(=O)C1CCCCC1 [Example 14, Cyclohexanecarboxylic acid benzoyl-{2-[4-(2,3-dihydro-benzo[1,4]dioxin-5-yl)-1-piperazin-1-ylethyl]-amide hydrochloride sesquihydrate]  5.13 nM
5. O=C(C1CCCCC1)N(CCN1CCN(c2cccc3c2OCCO3)CC1)C(=O)C1CCCCC1 [Example 8, Cyclohexanecarboxylic acid cyclohexanecarbonyl-{2-[4-(2,3-dihydro-benzo[1,4]-dioxin)-5-yl}-piperazin-1-yl]-ethyl}-amide sesquihydrochloride monohydrate]  4.77 nM
6. Cl.Cl.O=C(C1CCCCC1)N(CCN1CCN(c2cccc3[nH]ccc23)CC1)C(=O)C1CCCCC1 [Example 7, Cyclohexanecarboxylic acid cyclohexanecarbonyl-{2-[4-(1H-indol-4-yl)-piperazin-1-yl]-ethyl}-amide dihydrochloride]  4.55 nM
7. COc1ccccc1N1CCN(CCN(C(=O)C2CCCCC2)C(=O)C2CCCCC2)CC1.Cl.Cl [Example 6, Cyclohexanecarboxylic acid cyclohexanecarbonyl-{2-[4-(2-methoxyphenyl)-piperazin-1-yl]-ethyl}-amide dihydrochloride]  3.1 nM
8. (R)-Cyclohexanecarboxylic acid cyclohexanecarbonyl-{1-methyl-2-[4-(2-methoxyphenyl)-piperazin-2-yl]-ethyl}-amide fumarate [Example 9]  2.69 nM
9. COc1ccccc1N1CCN(C[C@@H](Cc2cn(C)c3ccccc23)N(C(=O)C2CCCCC2)C(=O)C2CCCCC2)CC1 [Example 12, (R)-Cyclohexanecarboxylic acid cyclohexanecarbonyl-{1-[4-(2-methoxyphenyl)-piperazin-1-ylmethyl]-2-(1-methyl-1H-indol-3-yl)ethyl}-amide hydrochloride monohydrate]  0.78 nM
10. COc1ccc(C[C@H](CN2CCN(c3ccccc3OC)CC2)N(C(=O)C2CCCCC2)C(=O)C2CCCCC2)cc1 [Example 11, (R)-Cyclohexanecarboxylic acid cyclohexanecarbonyl-{1-(4-methoxybenzyl)-2-[4-(2-methoxyphenyl)-piperazin-1-yl]-etlyl}-amide hydrochloride]  0.38 nM

tested on: not given; test: not given; conditions: not given

First: COc1ccccc1N1CCN(C[C@@H](C)N(C(=O)c2ccccc2)C(=O)c2ccccc2)CC1 (as salt: fumarate) (hydrate or solvate) [Example 16, (R)-N-Benzoyl-N-{1-methyl-2-[4-(2-methoxyphenyl)-piperazin-1-yl]-ethyl}-benzamide semifumarate-hemihydrate]
Second: COc1ccccc1N1CCN(C[C@@H](Cc2ccccc2)N(C(=O)C2CCCCC2)C(=O)C2CCCCC2)CC1 (as salt: fumarate) [Example 10, (R)-Cyclohexanecarboxylic acid cyclohexanecarbonyl-{1-benzyl)-2-[4-(2-methoxy-phenyl)-piperazin-1yl]-ethyl}-amide fumarate]
The melting point of the first is lower: 115 to 120 °C for the first, 146 to 147 °C for the second.

First: O=C(c1ccccc1)N(CCN1CCN(c2cccc3c2OCCO3)CC1)C(=O)C1CCCCC1 (as salt: hydrochloride) (hydrate or solvate) [Example 14, Cyclohexanecarboxylic acid benzoyl-{2-[4-(2,3-dihydro-benzo[1,4]dioxin-5-yl)-1-piperazin-1-ylethyl]-amide hydrochloride sesquihydrate]
Second: O=C(C1CCCCC1)N(CCN1CCN(c2cccc3c2OCCO3)CC1)C(=O)C1CCCCC1 (as salt: hydrochloride) (hydrate or solvate) [Example 8, Cyclohexanecarboxylic acid cyclohexanecarbonyl-{2-[4-(2,3-dihydro-benzo[1,4]-dioxin)-5-yl}-piperazin-1-yl]-ethyl}-amide sesquihydrochloride monohydrate]
The melting point of the first is higher: 169 to 171 °C for the first, 148 to 149 °C for the second.

Compared with `Cl.Cl.O=C(C1CCCCC1)N(CCN1CCN(c2cccc3[nH]ccc23)CC1)C(=O)C1CCCCC1` [Example 7, Cyclohexanecarboxylic acid cyclohexanecarbonyl-{2-[4-(1H-indol-4-yl)-piperazin-1-yl]-ethyl}-amide dihydrochloride], `COc1ccccc1N1CCN(CCN(C(=O)C2CCCCC2)C(=O)C2CCCCC2)CC1.Cl.Cl` [Example 6, Cyclohexanecarboxylic acid cyclohexanecarbonyl-{2-[4-(2-methoxyphenyl)-piperazin-1-yl]-ethyl}-amide dihydrochloride] is higher in melting point: 144 to 146 °C for the first, 159 to 160 °C for the second.

First: COc1ccccc1N1CCN(C[C@@H](Cc2cn(C)c3ccccc23)N(C(=O)C2CCCCC2)C(=O)C2CCCCC2)CC1.Cl.O (hydrate or solvate) [Example 12, (R)-Cyclohexanecarboxylic acid cyclohexanecarbonyl-{1-[4-(2-methoxyphenyl)-piperazin-1-ylmethyl]-2-(1-methyl-1H-indol-3-yl)ethyl}-amide hydrochloride monohydrate]
Second: COc1ccc(C[C@H](CN2CCN(c3ccccc3OC)CC2)N(C(=O)C2CCCCC2)C(=O)C2CCCCC2)cc1 (as salt: hydrochloride) [Example 11, (R)-Cyclohexanecarboxylic acid cyclohexanecarbonyl-{1-(4-methoxybenzyl)-2-[4-(2-methoxyphenyl)-piperazin-1-yl]-etlyl}-amide hydrochloride]
The melting point of the first is higher: 136 to 138 °C for the first, 106 to 108 °C for the second.
